Measurements: ChEMBL document CHEMBL1909046, “DrugMatrix in vitro pharmacology data”

Key:
[1] = target: T1, 5-hydroxytryptamine receptor 1A (Rattus norvegicus, UniProt P19327); assay type: cell membranes, CHO-K1, Membrane; also: in other assays of this panel Not Active means under 50% inhibition at 10 µM
T1 sequence (P19327 whole entry): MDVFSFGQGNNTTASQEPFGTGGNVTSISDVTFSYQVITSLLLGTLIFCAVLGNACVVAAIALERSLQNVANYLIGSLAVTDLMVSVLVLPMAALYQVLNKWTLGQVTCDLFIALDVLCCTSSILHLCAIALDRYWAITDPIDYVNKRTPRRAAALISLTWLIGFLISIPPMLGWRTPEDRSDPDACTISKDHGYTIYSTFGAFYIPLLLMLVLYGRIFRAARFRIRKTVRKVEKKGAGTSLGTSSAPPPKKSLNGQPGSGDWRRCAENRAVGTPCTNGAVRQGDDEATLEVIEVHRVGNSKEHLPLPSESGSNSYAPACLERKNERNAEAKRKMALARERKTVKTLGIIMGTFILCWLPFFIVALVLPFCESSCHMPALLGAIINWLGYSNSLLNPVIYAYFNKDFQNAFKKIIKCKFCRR

[2] = target: T2, Nitric oxide synthase, inducible (Mus musculus, UniProt P29477); parameters: species or system Escherichia coli;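 also: inhibition of iNOS enzyme activity measured with L-arginine as substrate; in other assays of this panel Not Active means under 50% inhibition at 10 µM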
T2 sequence (P29477 whole entry): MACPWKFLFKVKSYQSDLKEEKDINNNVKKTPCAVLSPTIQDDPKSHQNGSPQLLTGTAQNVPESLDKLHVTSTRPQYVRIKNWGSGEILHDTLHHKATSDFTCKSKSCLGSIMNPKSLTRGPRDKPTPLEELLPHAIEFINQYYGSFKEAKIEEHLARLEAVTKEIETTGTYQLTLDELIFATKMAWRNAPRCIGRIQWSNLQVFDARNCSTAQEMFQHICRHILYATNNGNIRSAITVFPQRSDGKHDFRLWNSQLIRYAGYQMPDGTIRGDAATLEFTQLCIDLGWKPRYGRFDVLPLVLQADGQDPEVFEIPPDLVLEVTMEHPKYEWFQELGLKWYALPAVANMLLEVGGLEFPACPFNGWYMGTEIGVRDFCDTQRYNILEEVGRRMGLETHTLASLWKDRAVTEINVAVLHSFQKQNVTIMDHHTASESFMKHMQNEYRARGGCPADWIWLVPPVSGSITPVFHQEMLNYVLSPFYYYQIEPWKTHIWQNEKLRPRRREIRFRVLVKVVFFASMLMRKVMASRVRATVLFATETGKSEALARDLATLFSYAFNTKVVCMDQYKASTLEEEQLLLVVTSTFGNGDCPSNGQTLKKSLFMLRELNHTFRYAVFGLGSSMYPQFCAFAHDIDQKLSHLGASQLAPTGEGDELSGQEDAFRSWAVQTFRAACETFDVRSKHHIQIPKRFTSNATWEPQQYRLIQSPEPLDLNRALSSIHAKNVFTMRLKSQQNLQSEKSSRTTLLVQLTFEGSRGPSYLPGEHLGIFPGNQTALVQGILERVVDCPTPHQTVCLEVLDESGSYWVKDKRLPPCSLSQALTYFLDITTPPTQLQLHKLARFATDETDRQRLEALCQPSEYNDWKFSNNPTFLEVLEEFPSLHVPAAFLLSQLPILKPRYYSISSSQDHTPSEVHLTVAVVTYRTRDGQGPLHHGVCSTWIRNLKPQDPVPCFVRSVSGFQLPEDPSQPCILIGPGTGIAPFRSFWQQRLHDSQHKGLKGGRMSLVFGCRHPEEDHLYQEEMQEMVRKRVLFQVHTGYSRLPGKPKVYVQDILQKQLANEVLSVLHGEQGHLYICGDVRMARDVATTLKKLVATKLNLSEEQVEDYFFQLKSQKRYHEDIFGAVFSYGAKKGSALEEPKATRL

[3] = target: 5-hydroxytryptamine receptor 6 (Homo sapiens, UniProt P50406); assay type: cell membranes, HeLa, Membrane; also: in other assays of this panel Not Active means under 50% inhibition at 10 µM
Chain of 5-hydroxytryptamine receptor 6 (P50406 whole entry): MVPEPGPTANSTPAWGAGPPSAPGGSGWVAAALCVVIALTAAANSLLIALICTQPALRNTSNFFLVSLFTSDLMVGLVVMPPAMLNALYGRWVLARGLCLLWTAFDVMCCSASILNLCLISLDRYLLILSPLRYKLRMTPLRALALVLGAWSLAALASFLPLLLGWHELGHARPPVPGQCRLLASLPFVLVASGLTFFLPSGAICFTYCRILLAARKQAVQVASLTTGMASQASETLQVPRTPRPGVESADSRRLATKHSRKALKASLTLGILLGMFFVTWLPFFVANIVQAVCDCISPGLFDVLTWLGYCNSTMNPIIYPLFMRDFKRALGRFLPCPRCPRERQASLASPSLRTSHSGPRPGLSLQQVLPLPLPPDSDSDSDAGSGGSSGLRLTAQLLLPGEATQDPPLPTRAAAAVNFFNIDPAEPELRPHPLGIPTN

[4] = DRUGMATRIX: Tumor Necrosis Factor (TNF), Non-Selective radioligand binding (ligand: [125I] TNF-alpha); assay type: cell membranes, Membrane; details: u-937; Not Active = under 50% inhibition at 10 µM
[5] = target: T3, Alpha-1D adrenergic receptor (Homo sapiens, UniProt P25100); assay type: cell membranes, HEK293, Membrane; also: in other assays of this panel Not Active means under 50% inhibition at 10 µM
T3 sequence (P25100 whole entry): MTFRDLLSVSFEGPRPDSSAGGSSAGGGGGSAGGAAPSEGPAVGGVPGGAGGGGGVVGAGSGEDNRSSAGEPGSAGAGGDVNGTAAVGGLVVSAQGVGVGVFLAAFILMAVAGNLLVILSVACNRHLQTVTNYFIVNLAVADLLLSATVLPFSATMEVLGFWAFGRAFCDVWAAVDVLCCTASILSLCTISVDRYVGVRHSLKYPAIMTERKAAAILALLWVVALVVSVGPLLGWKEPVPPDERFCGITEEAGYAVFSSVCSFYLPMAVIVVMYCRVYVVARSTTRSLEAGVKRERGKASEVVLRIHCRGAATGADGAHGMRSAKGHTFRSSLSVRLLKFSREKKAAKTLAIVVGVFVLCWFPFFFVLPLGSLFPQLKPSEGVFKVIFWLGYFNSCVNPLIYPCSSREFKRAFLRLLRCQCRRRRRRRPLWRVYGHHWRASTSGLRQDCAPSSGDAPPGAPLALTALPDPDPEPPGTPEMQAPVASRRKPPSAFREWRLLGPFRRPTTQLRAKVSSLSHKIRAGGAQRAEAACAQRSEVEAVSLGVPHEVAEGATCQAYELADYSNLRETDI

[6] = target: Beta-3 adrenergic receptor (Homo sapiens, UniProt P13945); assay: DRUGMATRIX: Adrenergic beta3 radioligand binding (ligand: [125I] Cyanopindolol); assay type: cell membranes, HEK293, Membrane; details: hek293; Not Active = under 50% inhibition at 10 µM
Chain of Beta-3 adrenergic receptor (P13945 whole entry): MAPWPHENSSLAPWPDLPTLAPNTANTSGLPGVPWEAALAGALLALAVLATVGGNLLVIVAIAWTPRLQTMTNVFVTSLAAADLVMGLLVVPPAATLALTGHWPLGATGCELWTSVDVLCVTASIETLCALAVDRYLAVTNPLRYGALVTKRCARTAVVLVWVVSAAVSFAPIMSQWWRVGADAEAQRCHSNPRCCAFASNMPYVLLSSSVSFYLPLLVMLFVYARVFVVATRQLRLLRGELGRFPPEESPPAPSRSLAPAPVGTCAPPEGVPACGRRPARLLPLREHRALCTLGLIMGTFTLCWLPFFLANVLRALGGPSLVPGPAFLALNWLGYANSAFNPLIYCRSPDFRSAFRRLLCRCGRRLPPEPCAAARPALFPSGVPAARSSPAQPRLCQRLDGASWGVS

For CCn1cc(C(=O)O)c(=O)c2cc(F)c(N3CCNCC3)cc21 [NORFLOXACIN], the IC50 ([1]; cho-k1) was “Not Active”, the IC50 [2] was “Not Active” and the IC50 ([3]; hela) was “Not Active”. The IC50 [4] was “Not Active”, the Ki [4] was “Not Active” and the IC50 ([5]; hek293) was “Not Active”. For the same compound, the IC50 [6] was “Not Active”.
In the case of NC1=NC(=O)C(c2ccccc2)O1 (centres undefined) [PEMOLINE], the IC50 ([1]; cho-k1) is reported as “Not Active”, the IC50 [2] is reported as “Not Active” and the IC50 ([3]; hela) is reported as “Not Active”. The IC50 [4] was “Not Active”, the Ki [4] was “Not Active” and the IC50 ([5]; hek293) was “Not Active”. For the same compound, the IC50 [6] was “Not Active”.
In the case of Nc1nc2c(ncn2CCC(CO)CO)c(=O)[nH]1 [PENCICLOVIR], the IC50 ([1]; cho-k1) is reported as “Not Active”, the IC50 [2] is reported as “Not Active” and the IC50 ([3]; hela) is reported as “Not Active”. The IC50 [4] was “Not Active”, the Ki [4] was “Not Active” and the IC50 ([5]; hek293) was “Not Active”. The IC50 [6] was “Not Active”.
In the case of C=C(C)C1(O)OC(=O)C=C1OC (centres undefined) [PENICILLIC ACID], the IC50 ([1]; cho-k1) is reported as “Not Active”, the IC50 [2] is reported as “Not Active” and the IC50 ([3]; hela) is reported as “Not Active”. The IC50 [4] was “Not Active”, the Ki [4] was “Not Active” and the IC50 ([5]; hek293) was “Not Active”. For the same compound, the IC50 [6] was “Not Active”.
For CC1(C)S[C@@H]2[C@H](NC(=O)Cc3ccccc3)C(=O)N2[C@H]1C(=O)O [PENICILLIN G], the IC50 ([1]; cho-k1) was “Not Active”, the IC50 [2] was “Not Active” and the IC50 ([3]; hela) was “Not Active”. The IC50 [4] was “Not Active”, the Ki [4] was “Not Active” and the IC50 ([5]; hek293) was “Not Active”. The IC50 [6] was “Not Active”.
For C1CCC(C(CC2CCCCN2)C2CCCCC2)CC1 (centres undefined) [PERHEXILINE], the IC50 ([1]; cho-k1) was “Not Active”, the IC50 [2] was “Not Active” and the IC50 ([3]; hela) was “Not Active”. The IC50 [4] was “Not Active”, the Ki [4] was “Not Active” and the IC50 ([5]; hek293) was “Not Active”. For the same compound, the IC50 [6] was “Not Active”.
In the case of CCOc1ccc(NC(C)=O)cc1 [PHENACETIN], the IC50 ([1]; cho-k1) is reported as “Not Active”, the IC50 [2] is reported as “Not Active” and the IC50 ([3]; hela) is reported as “Not Active”. The IC50 [4] was “Not Active”, the Ki [4] was “Not Active” and the IC50 ([5]; hek293) was “Not Active”. For the same compound, the IC50 [6] was “Not Active”.
In the case of CNNCc1ccc(C(=O)NC(C)C)cc1 [PROCARBAZINE], the IC50 ([1]; cho-k1) is reported as “Not Active”, the IC50 [2] is reported as “Not Active” and the IC50 ([3]; hela) is reported as “Not Active”. The IC50 [4] was “Not Active”, the Ki [4] was “Not Active” and the IC50 ([5]; hek293) was “Not Active”. The IC50 [6] was “Not Active”.
In the case of CN(C)CCCN1c2ccccc2Sc2ccccc21 [PROMAZINE], the IC50 ([1]; read-out: IC50) is reported as 5170 nM, the Ki ([1]; read-out: Ki) is reported as 2960 nM and the IC50 [2] is reported as “Not Active”. The IC50 ([3]; read-out: IC50) was 274 nM, the Ki ([3]; read-out: Ki) was 127 nM and the IC50 [4] was “Not Active”. The Ki [4] was “Not Active”, the IC50 ([5]; read-out: IC50) was 13 nM and the Ki ([5]; read-out: Ki) was 6.18 nM. The IC50 [6] was “Not Active”.
In the case of CC(O)CO (centres undefined) [PROPYLENE GLYCOL], the IC50 ([1]; cho-k1) is reported as “Not Active”, the IC50 [2] is reported as “Not Active” and the IC50 ([3]; hela) is reported as “Not Active”. The IC50 [4] was “Not Active”, the Ki [4] was “Not Active” and the IC50 ([5]; hek293) was “Not Active”. For the same compound, the IC50 [6] was “Not Active”.
In the case of CADMIUM ACETATE, the IC50 ([1]; cho-k1) is reported as “Not Active”, the Ki ([1]; cho-k1) is reported as “Not Active” and the IC50 [2] is reported as “Not Active”. The Ki [2] was “Not Active”, the IC50 ([3]; hela) was “Not Active” and the Ki ([3]; hela) was “Not Active”. The IC50 [4] was “Not Active”, the Ki [4] was “Not Active” and the IC50 ([5]; hek293) was “Not Active”. For the same compound, the Ki ([5]; hek293) was “Not Active”, the IC50 [6] was “Not Active” and the Ki [6] was “Not Active”.
With LEAD (II) ACETATE the IC50 ([1]; cho-k1) was “Not Active”, the Ki ([1]; cho-k1) was “Not Active” and the IC50 [2] was “Not Active”. For the same compound, the Ki [2] was “Not Active”, the IC50 ([3]; hela) was “Not Active” and the Ki ([3]; hela) was “Not Active”. For the same compound, the IC50 [4] was “Not Active”, the Ki [4] was “Not Active” and the IC50 ([5]; hek293) was “Not Active”. For the same compound, the Ki ([5]; hek293) was “Not Active”, the IC50 [6] was “Not Active” and the Ki [6] was “Not Active”.
For LIPOPOLYSACCHARIDE E. COLI O55:B5, the IC50 ([1]; cho-k1) was “Not Active”, the Ki ([1]; cho-k1) was “Not Active” and the IC50 [2] was “Not Active”. For the same compound, the Ki [2] was “Not Active”, the IC50 ([3]; hela) was “Not Active” and the Ki ([3]; hela) was “Not Active”. For the same compound, the IC50 [4] was “Not Active”, the Ki [4] was “Not Active” and the IC50 ([5]; hek293) was “Not Active”. For the same compound, the Ki ([5]; hek293) was “Not Active”, the IC50 [6] was “Not Active” and the Ki [6] was “Not Active”.
